{
  "source": "patent EP0880968A1",
  "about": "“Pharmaceutical compositions of peptides having low solubility in physiological medium” (Applied Research Systems ARS Holding N.V., priority 1997, dated 1998)",
  "key": {"[1]": {"experiment": "Solubilisation studies (visual appearance and RP-HPLC solubility after equilibration overnight at 25°C)", "format": "physicochemical", "description": "(§1) RP-HPLC gradient elution, C-18 (e.g. Vydac 218 TP54, 250 x 4.6 mm) column. UV detection at 215 nm, injection volume 15 µl mobile phase A: pH 4.5 phosphate buffer (0.1M), mobile phase B: acetonitrile, flow rate = 1.0 ml/min, runtime = 23 min. External standard solution concentrations of 100 µg/ml were injected during analysis. The gradient was: 77% A, 23% B to 52% A, 48% B […].\nSolubilisation studies were carried out to study the effect of: • pH (solutions were acidified with either acetic acid or hydrochloric acid) • hydrotropic agents (nicotinamide, sodium saccharin, sodium salicylate, sodium benzoate, histidine hydrochloride, thiamine hydrochloride, phenylalanine).\nSaline used in these studies corresponds to 0.9% sodium chloride solution.\nFollowing the visual analysis, a number of solutions were selected for further quantitative determination of the solubility by filtration (0.45 µm filters) and appropriate dilution using the RP-HPLC method described above."}, "[2]": {"experiment": "Stability of nicotinamide/antide formulations (chemical compatibility)", "format": "physicochemical", "details": "pH 5", "description": "as §1\nFour formulations of antide and nicotinamide at different concentration ratios and adjusted to pH 5 were prepared and tested over 3 months at +40°C, +25°C and +4°C.\nChromatographic traces of antide were identical to those of the standard, with the addition of the early eluting nicotinamide peak which appeared at a retention tune of 3.2 minutes."}},
  "note": "“And” between values parts separate entries of the source, which are not always exact repeats. Equal entries are not always repeated. Where two headings read alike, the source gives them in different places. Square brackets hold non-standard residues; d marks the D form. Peptide text beside a SMILES is read from it. * marks the point of attachment. dPhe(4-Cl) = N[C@H](Cc1ccc(Cl)cc1)C(=O)O; d2Nal = N[C@H](Cc1ccc2ccccc2c1)C(=O)O; Lys(iPr) = CC(C)NCCCC[C@H](N)C(=O)O; d3Pal = N[C@H](Cc1cccnc1)C(=O)O; Nicotinoyl = O=C(c1cccnc1)*",
  "data": [
    {"smiles": "CC(=O)N[C@H](Cc1ccc2ccccc2c1)C(=O)N[C@H](Cc1ccc(Cl)cc1)C(=O)N[C@H](Cc1cccnc1)C(=O)N[C@@H](CO)C(=O)N[C@@H](CCCCNC(=O)c1cccnc1)C(=O)N[C@H](CCCCNC(=O)c1cccnc1)C(=O)N[C@@H](CC(C)C)C(=O)N[C@@H](CCCCNC(C)C)C(=O)N1CCC[C@H]1C(=O)N[C@H](C)C(N)=O", "note": "[antide] (Ac-[d2Nal][dPhe(4-Cl)][d3Pal]SK(Nicotinoyl)[dK](Nicotinoyl)L[Lys(iPr)]P[dA]-NH2)", "values": [
      {"measurement": "solubility thermodynamic", "setting": "[1]; 0.9% NaCl solution (saline), saline or isotonic, 0.9% NaCl solution", "result": 25, "unit": "µg/mL"},
      {"measurement": "Solubility", "setting": "[1]; 1% acetic acid in saline, 5 mg/ml antide added, pH 3.12, not quantified, read-out: drug solubility", "result": "< 5", "unit": "mg/mL"},
      {"measurement": "solubility thermodynamic", "setting": "[1]; WFI (water for injection), pH 4.4, water, WFI, nominal amount added 10 mg/ml, pH 4.40", "result": 8130, "unit": "µg/mL"},
      {"measurement": "Solubility", "setting": "[1]; WFI (water for injection), water, WFI, nominal amount added 1 mg/ml, pH 5.00, read-out: Solubility", "result": "≥ 1", "unit": "mg/mL"},
      {"measurement": "Solubility", "setting": "[1]; WFI, nominal amount added 10 mg/ml, pH 4.40", "result": 8.1, "unit": "mg/mL"},
      {"measurement": "solubility thermodynamic", "setting": "[1]; phosphate buffered saline, aqueous buffer", "result": 16, "unit": "µg/mL"},
      {"measurement": "Solubility", "setting": "[1]; saline + 15% nicotinamide, nominal amount added 5 mg/ml, pH 5.79 (Table 9)", "result": "3.3 mg/mL and 3.32 mg/mL"},
      {"measurement": "Solubility", "setting": "[1]; saline + 15% sodium benzoate, nominal amount added 5 mg/ml, pH 6.69", "result": 0.072, "unit": "mg/mL"},
      {"measurement": "Solubility", "setting": "[1]; saline + 15% sodium salicylate, nominal amount added 5 mg/ml, pH 5.81", "result": 0.21, "unit": "mg/mL"},
      {"measurement": "Solubility", "setting": "[1]; saline + 15% thiamine hydrochloride, nominal amount added 5 mg/ml, pH 3.30", "result": "3.0 mg/mL and 3.01 mg/mL"},
      {"measurement": "Solubility", "setting": "[1]; saline + histidine hydrochloride (5%), nominal amount added 5 mg/ml, pH 4.17", "result": 0.076, "unit": "mg/mL"},
      {"measurement": "Solubility", "setting": "[1]; saline + nicotinamide 10%, nominal amount added 5 mg/ml, pH 5.68", "result": 1.40, "unit": "mg/mL"},
      {"measurement": "Solubility", "setting": "[1]; saline + nicotinamide 15%, nominal amount added 5 mg/ml, pH 5.76 (Table 10)", "result": 3.23, "unit": "mg/mL"},
      {"measurement": "Solubility", "setting": "[1]; saline + nicotinamide 20%, nominal amount added 10 mg/ml, pH 5.64", "result": "8.5 mg/mL and 8.49 mg/mL"},
      {"measurement": "Solubility", "setting": "[1]; saline + phenylalanine (1.7%), nominal amount added 5 mg/ml, pH 4.59", "result": 0.066, "unit": "mg/mL"},
      {"measurement": "solubility thermodynamic", "setting": "[1]; saline acidified with acetic acid, pH 3.01, saline or isotonic, nominal amount added 10 mg/ml, pH 3.01", "result": 2200, "unit": "µg/mL"},
      {"measurement": "Solubility", "setting": "[1]; saline acidified with acetic acid, nominal amount added 10 mg/ml, pH 3.01", "result": 2.23, "unit": "mg/mL"},
      {"measurement": "solubility thermodynamic", "setting": "[1]; saline, pH 5.04, saline or isotonic, nominal amount added 1 mg/ml, natural pH 5.04", "result": 25, "unit": "µg/mL"},
      {"measurement": "Stability of nicotinamide/antide formulations", "setting": "[2]; antide 1 mg/ml, nicotinamide 5%, +4°C, 4W", "result": 0.9},
      {"measurement": "Stability of nicotinamide/antide formulations", "setting": "[2]; antide 1 mg/ml, nicotinamide 5%, +4°C, 12W", "result": 1.0},
      {"measurement": "Stability of nicotinamide/antide formulations", "setting": "[2]; antide 1 mg/ml, nicotinamide 5%, +25°C, 1W", "result": 0.9},
      {"measurement": "Stability of nicotinamide/antide formulations", "setting": "[2]; antide 1 mg/ml, nicotinamide 5%, +25°C, 4W", "result": 0.9},
      {"measurement": "Stability of nicotinamide/antide formulations", "setting": "[2]; antide 1 mg/ml, nicotinamide 5%, +25°C, 12W", "result": 1.0},
      {"measurement": "Stability of nicotinamide/antide formulations", "setting": "[2]; antide 1 mg/ml, nicotinamide 5%, +40°C, 1W", "result": 1.0},
      {"measurement": "Stability of nicotinamide/antide formulations", "setting": "[2]; antide 1 mg/ml, nicotinamide 5%, +40°C, 4W", "result": 0.9},
      {"measurement": "Stability of nicotinamide/antide formulations", "setting": "[2]; antide 1 mg/ml, nicotinamide 5%, +40°C, 12W", "result": 1.0},
      {"measurement": "Stability of nicotinamide/antide formulations", "setting": "[2]; antide 1 mg/ml, nicotinamide 5%, T=0", "result": 1.0},
      {"measurement": "Stability of nicotinamide/antide formulations", "setting": "[2]; antide 1 mg/ml, nicotinamide 25%, +4°C, 4W", "result": 1.0},
      {"measurement": "Stability of nicotinamide/antide formulations", "setting": "[2]; antide 1 mg/ml, nicotinamide 25%, +4°C, 12W", "result": 1.1},
      {"measurement": "Stability of nicotinamide/antide formulations", "setting": "[2]; antide 1 mg/ml, nicotinamide 25%, +25°C, 1W", "result": 1.0},
      {"measurement": "Stability of nicotinamide/antide formulations", "setting": "[2]; antide 1 mg/ml, nicotinamide 25%, +25°C, 4W", "result": 1.0},
      {"measurement": "Stability of nicotinamide/antide formulations", "setting": "[2]; antide 1 mg/ml, nicotinamide 25%, +25°C, 12W", "result": 1.1},
      {"measurement": "Stability of nicotinamide/antide formulations", "setting": "[2]; antide 1 mg/ml, nicotinamide 25%, +40°C, 1W", "result": 1.0},
      {"measurement": "Stability of nicotinamide/antide formulations", "setting": "[2]; antide 1 mg/ml, nicotinamide 25%, +40°C, 4W", "result": 1.0},
      {"measurement": "Stability of nicotinamide/antide formulations", "setting": "[2]; antide 1 mg/ml, nicotinamide 25%, +40°C, 12W", "result": 1.1},
      {"measurement": "Stability of nicotinamide/antide formulations", "setting": "[2]; antide 1 mg/ml, nicotinamide 25%, T=0", "result": 1.0},
      {"measurement": "Stability of nicotinamide/antide formulations", "setting": "[2]; antide 10 mg/ml, nicotinamide 5%, +4°C, 1W", "result": 10.3},
      {"measurement": "Stability of nicotinamide/antide formulations", "setting": "[2]; antide 10 mg/ml, nicotinamide 5%, +4°C, 4W", "result": 10.0},
      {"measurement": "Stability of nicotinamide/antide formulations", "setting": "[2]; antide 10 mg/ml, nicotinamide 5%, +4°C, 12W", "result": 10.5},
      {"measurement": "Stability of nicotinamide/antide formulations", "setting": "[2]; antide 10 mg/ml, nicotinamide 5%, +25°C, 1W", "result": "increased viscosity with precipitate formation and gel"},
      {"measurement": "Stability of nicotinamide/antide formulations", "setting": "[2]; antide 10 mg/ml, nicotinamide 5%, +25°C, 4W", "result": "gel"},
      {"measurement": "Stability of nicotinamide/antide formulations", "setting": "[2]; antide 10 mg/ml, nicotinamide 5%, +25°C, 12W", "result": "gel"},
      {"measurement": "Stability of nicotinamide/antide formulations", "setting": "[2]; antide 10 mg/ml, nicotinamide 5%, +40°C, 1W", "result": "increased viscosity with precipitate formation and gel"},
      {"measurement": "Stability of nicotinamide/antide formulations", "setting": "[2]; antide 10 mg/ml, nicotinamide 5%, +40°C, 4W", "result": "gel"},
      {"measurement": "Stability of nicotinamide/antide formulations", "setting": "[2]; antide 10 mg/ml, nicotinamide 5%, +40°C, 12W", "result": "gel"},
      {"measurement": "Stability of nicotinamide/antide formulations", "setting": "[2]; antide 10 mg/ml, nicotinamide 5%, T=0", "result": 9.7},
      {"measurement": "Stability of nicotinamide/antide formulations", "setting": "[2]; antide 10 mg/ml, nicotinamide 25%, +4°C, 4W", "result": 10.1},
      {"measurement": "Stability of nicotinamide/antide formulations", "setting": "[2]; antide 10 mg/ml, nicotinamide 25%, +25°C, 1W", "result": 9.8},
      {"measurement": "Stability of nicotinamide/antide formulations", "setting": "[2]; antide 10 mg/ml, nicotinamide 25%, +25°C, 4W", "result": 9.5},
      {"measurement": "Stability of nicotinamide/antide formulations", "setting": "[2]; antide 10 mg/ml, nicotinamide 25%, +25°C, 12W", "result": 11.1},
      {"measurement": "Stability of nicotinamide/antide formulations", "setting": "[2]; antide 10 mg/ml, nicotinamide 25%, +40°C, 1W", "result": 10.7},
      {"measurement": "Stability of nicotinamide/antide formulations", "setting": "[2]; antide 10 mg/ml, nicotinamide 25%, +40°C, 4W", "result": 9.4},
      {"measurement": "Stability of nicotinamide/antide formulations", "setting": "[2]; antide 10 mg/ml, nicotinamide 25%, +40°C, 12W", "result": 10.2},
      {"measurement": "Stability of nicotinamide/antide formulations", "setting": "[2]; antide 10 mg/ml, nicotinamide 25%, T=0", "result": 9.8}
    ]}
  ]
}
